# Data: patent US20020037531A1, “Expression cloning of protein targets for phospholipids” (priority 1999, published 2002)
# Residue numbers refer to the chain shown, from its start.
# Experiments:
# PHISH = biological target: T1, PHISH (Mus musculus, UniProt Q9QXT1); experiment: Competition binding of non-biotinylated lipids against biotinylated PtdIns-3,4,5-P3 on avidin beads; parameters: species or system murine; conditions: for relative affinity for PHISH in competition binding studies: FIG. 4B; for displacement of PHISH from PtdIns-3,4,5-P3-biotin bound to avidin beads: FIG. 4B legend, compared with PtdIns-4,5-P2
# T1 construct: the gene for PHISH isolated from the expression screen encodes the entire protein; made in house; host or cells: in vitro transcription/translation (reticulocyte lysate) of a clone from a murine spleen cDNA library in pCS2(+)
# T1 sequence (Q9QXT1 1-280): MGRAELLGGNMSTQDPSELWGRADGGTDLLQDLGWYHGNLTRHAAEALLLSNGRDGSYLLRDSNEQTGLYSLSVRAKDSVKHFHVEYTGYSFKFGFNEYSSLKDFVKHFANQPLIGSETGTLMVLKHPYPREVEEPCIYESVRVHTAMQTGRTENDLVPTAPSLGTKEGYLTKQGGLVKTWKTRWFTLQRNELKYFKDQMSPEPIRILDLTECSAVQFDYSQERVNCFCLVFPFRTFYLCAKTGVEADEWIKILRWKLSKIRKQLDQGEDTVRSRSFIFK
# Experimental: (§1) Binding and Isolation of Radiolabeled In Vitro Translated Proteins with Biotinylated Phosphoinositides. Avidin beads (Ultralink immobilized Neutravidin™, Pierce Chemical) were washed twice with 5 volumes of wash/binding (WB) buffer (10 mM HEPES pH=7.4, 150 mM NaCl, 0.5% NP-40, 5 mM DTT). The beads were then reconstituted in 2×volume of WB buffer and the biotinylated phosphoinositide was added. Generally, 0.1 μl of 100 μM biotinylated lipid was bound per 1 μl of packed avidin beads. The biotinylated lipid was incubated with the beads for 1-2 hours at 4° C. with gentle agitation and then washed twice with 10×-bead volume of WB buffer to remove excess ligand. Control beads without biotinylated lipid were prepared in an identical manner but without the addition of the lipid. 5 μl of the ^35S-labelling reaction containing the in vitro transcribed/translated protein was then added to the tubes and the protein was allowed to bind for 2 hours at 4° C. with gentle agitation. The tubes were then centrifuged briefly, the beads were washed 2×with 0.5 ml WB buffer, and the bound proteins were eluted by boiling the beads in 20 μl Laemmli sample buffer containing 5% 2-mercaptoethanol. The proteins were then separated on a 13.75% SDS-PAGE gel. Following electrophoresis the gel was soaked in EnHance (Dupont/NEN) for 1 hour and then in a 7.5% w/v solution of PEG-3350 for 1 hour. The gel was then dried and subjected to autoradiography.
# Competition Binding of Isolated Proteins for Non-biotinylated Lipids over Biotinylated Lipids. […] Binding was quantitated by measuring the intensities of bands from the autoradiogram or by scintillation counting of the eluted proteins in Laemmli sample buffer using Opti-fluor (Packard). Binding curves were modeled by the equation: […]
# where % bound represents the quantity of protein bound to the biotinylated lipid coated beads in the presence of a concentration C of competing lipid. IC50 is the molar excess of competitor C required to reduce the % bound to 50% of its maximal value in the absence of competitor.
# In Vitro Translation Expression Cloning. A murine spleen cDNA library containing 2×10^5 independent clones was divided into 1700 individual small pools. The cDNAs in this library had been cloned into the in vitro transcription vector pCS2(+) under control of the SP6 promoter. Individual cDNAs from positive pools were isolated from the other cDNAs of the pool using a 96-well format as described previously. The individual cDNAs were sequenced (Harvard Biopolymer Facility) and compared with known sequences by searching GenBank databases.
# PH domain of PDK1 = biological target: T2, PH domain of PDK1 (Homo sapiens, UniProt O15530); conditions: literature, relative affinities; cited from earlier work
# T2 sequence (O15530 459-550 limits assumed): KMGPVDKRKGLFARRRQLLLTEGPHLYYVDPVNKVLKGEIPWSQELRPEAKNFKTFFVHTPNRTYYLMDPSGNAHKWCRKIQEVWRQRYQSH
# PH domain of EST684797 = biological target: T3, PH domain of EST684797 (Homo sapiens, UniProt Q9UN19); conditions: literature; cited from earlier work
# T3 sequence (Q9UN19 164-259): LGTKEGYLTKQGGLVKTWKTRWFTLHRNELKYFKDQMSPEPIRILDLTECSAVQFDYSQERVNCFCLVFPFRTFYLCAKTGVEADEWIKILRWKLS
# [1] = biological target: T4, PDK1 (C-terminal fragment with PH domain) (Mus musculus, UniProt Q9Z2A0); experiment: Binding of 35S-labeled in vitro translated protein to avidin beads pre-bound with biotinylated phosphoinositide; parameters: species or system murine; conditions: FIG. 3A top panel right
# T4 construct: the first in-frame AUG codon appears at the end of the kinase domain such that only the entire PH domain of PDK1 is translated; made in house; host or cells: in vitro transcription/translation (reticulocyte lysate) of a clone from a murine spleen cDNA library in pCS2(+)
# T4 sequence (Q9Z2A0 462-553 limits assumed): T2 sequence (O15530 459-550 limits assumed) with R88Q, H92N
# Experimental: as §1, with “The gel was then dried and subjected to autoradiography.” left out
# PH domain of Akt = PH domain of Akt (Homo sapiens, UniProt P31749); conditions: two published studies; cited from earlier work
# Chain of PH domain of Akt (P31749 5-108 limits assumed): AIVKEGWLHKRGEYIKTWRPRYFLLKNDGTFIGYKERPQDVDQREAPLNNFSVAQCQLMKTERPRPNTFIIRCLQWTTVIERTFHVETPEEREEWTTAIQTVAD
# [2] = biological target: MBP-Akt PH fusion protein (Mus musculus, UniProt P31750); experiment: Competition binding of non-biotinylated lipids against biotinylated PtdIns-3,4,5-P3 on avidin beads; conditions: FIG. 2C legend; compared with PtdIns-4,5-P2
# Chain of MBP-Akt PH fusion protein (P31750 1-130): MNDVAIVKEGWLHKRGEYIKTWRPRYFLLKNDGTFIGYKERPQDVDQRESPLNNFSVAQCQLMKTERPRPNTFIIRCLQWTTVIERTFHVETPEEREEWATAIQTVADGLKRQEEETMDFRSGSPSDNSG
# Experimental: The proteins were expressed by transcribing/translating 0.01-1 μg of DNA of MBP or MBP-Akt PH with the Promega TnT Coupled Reticulocyte Lysate System using SP6 RNA polymerase and ^35S-methionine (in vivo labeling grade, Amersham) according to the manufacturers protocol.
# Binding and Isolation of Radiolabeled In Vitro Translated Proteins with Biotinylated Phosphoinositides. Avidin beads (Ultralink immobilized Neutravidin™, Pierce Chemical) were washed twice with 5 volumes of wash/binding (WB) buffer (10 mM HEPES pH=7.4, 150 mM NaCl, 0.5% NP-40, 5 mM DTT). The beads were then reconstituted in 2×volume of WB buffer and the biotinylated phosphoinositide was added. Generally, 0.1 μl of 100 μM biotinylated lipid was bound per 1 μl of packed avidin beads. The biotinylated lipid was incubated with the beads for 1-2 hours at 4° C. with gentle agitation and then washed twice with 10×-bead volume of WB buffer to remove excess ligand. […]
# Competition Binding of Isolated Proteins for Non-biotinylated Lipids over Biotinylated Lipids. […] Binding was quantitated by measuring the intensities of bands from the autoradiogram or by scintillation counting of the eluted proteins in Laemmli sample buffer using Opti-fluor (Packard). […]
relative affinity for PHISH in competition binding studies (PHISH),"displacement of PHISH from PtdIns-3,4,5-P3-biotin bound to avidin beads (PHISH)","displacement of MBP-PH from PtdIns-3,4,5-P3-biotin [2]",Substance,affinity for the PH domain of PDK1 (PH domain of PDK1),binding to the PH domain of EST684797 (PH domain of EST684797),binding of the expressed purified PDK1 fragment (single clone) [1],rank order of affinities for the PH domain of Akt (PH domain of Akt)
equal affinity,preferentially displace,,"phosphatidylinositol-3,4,5-trisphosphate [PtdIns-3,4,5-P3]",four-fold higher affinity,binds tightly and selectively,,
equal affinity,preferentially displace,preferentially displace,"phosphatidylinositol-3,4-bisphosphate [PtdIns-3,4-P2]",,binds tightly and selectively,"apparent lower affinity than for PtdIns-3,4,5-P3","PtdIns-3,4,5-P3>PtdIns-3,4-P2>>PtdIns-4,5-P2"
significantly lower affinity,,,"phosphatidylinositol-4,5-bisphosphate [PtdIns-4,5-P2]",much lower affinity,,,"PtdIns-3,4,5-P3>PtdIns-3,4-P2>>PtdIns-4,5-P2"
